Entries after “also recorded” stand apart in the source; their conditions may differ.
How the values were obtained:
[1] = mice; cited from earlier work
PP2A = PP2A activity assay in AECs and lung tissues from COPD lungs; assay type: cell-based, human
Experimental: PP2A Activity Determination and PP2A Inhibitors PP2A activity was determined using the Millipore PP2A activity assay (17-313; Millipore) (Nath S, et al., Am J Respir Cell Mol Biol. 59:695-705, 2018 December).
Determination of protein phosphatase 2A (PP2A) activity. PP2A activity was determined in isolated AECs and lung homogenates using the PP2A activity assay kit (Millipore) (Nath et al, Am J Respir Cell Mol Biol 59:695-705, 2018. doi: 10.1165/rcmb.2018-01730C.)

[2] = tested on: A2Cs of WT mice with 8X-BLM-induced PF; experiment: Repeated bleomycin (8X-BLM) induced PF in WT mice, A2C telomere analyses; assay type: in vivo, mouse
Experimental: (§1) To analyze the effect of BLM, mice were exposed to BLM (40 μg/20 g body weight) once per two week for 16 weeks. Control mice were exposed to normal saline. At 14th week the peptide treatment at a dosage of 30 μg/20 g body weight was initiated and continued on a daily basis for the next 14 days. At the end of the experiment, the mice were euthanized and used for the experiments.
(§2) To evaluate the effect of CSP7 against chronic BLM-induced PF, the mice were exposed to BLM (40 μg/20 g body weight) once every two weeks for 16 weeks as described elsewhere. (Tiwari et al, 2016). Control mice were exposed to normal saline. Fourteen weeks later the CSP7 at a dosage of 1.5 mg/kg body weight was administered by IP injection and continued daily basis for the next two weeks as described elsewhere. (Tiwari et al, 2016; Shetty et al, 2008b). At the end of the experiment, the mice were euthanized and lung tissues and isolated A2Cs from the extracted lung tissues were used for further analysis.
Detection of telomerase activity. Telomerase activity was detected using a PCR-based telomeric repeat amplification protocol (TRAP) method using the TRAPeze Telomerase Detection Kit (Intergen, Purchase, NY, USA). Briefly, the cells were lysed in CHAPS lysis buffer and quantified by BCA method, and equal quantity of the protein samples was combined with the reaction mix in RNase-free PCR tubes. The PCR amplification was then performed following instruction of the manufacturer. The final PCR product was loaded onto a 12.5% non-denaturing polyacrylamide gel and subjected to electrophoresis. The polyacrylamide gel was stained with ethidium bromide and documented using a gel-doc unit (Bio-Rad Laboratories). The relative quantities of telomerase activity for each sample were calculated according to the instructions provided in the kit.
Measurement of terminal restriction fragment (telomeric) length. For the determination of telomeric length, the TeloTTAGGG Telomere Length Assay Kit (Roche Diagnostics GmbH) was used. Briefly, genomic DNA was isolated and digested with Hinf1/Rsa. The digested DNA fragments were then separated by electrophoresis on agarose gel followed by Southern blot transfer. The membrane was then hybridized with a telomere specific digoxigenin (DIG)-labelled probe, incubated with anti-DIG alkaline phosphatase, and documented with chemiluminescence detection in gel-doc unit (Bio-Rad Laboratories). Telomeric length was identified by comparing with the pre-labelled molecular weight marker. The relative telomere length was calculated according to the protocol provided. In addition, relative telomere length was analyzed by qPCR analysis of the genomic DNA. (Cawthon, Nucleic Acids Res 2002, 30:e47-e47; Alder et al, Proc Natl Acad Sci USA 2015, 112:5099-5104.) The 36B4 gene was served as the control.

A2Cs of PAI-1^−/− mice = experiment: Tobacco smoke or repeated bleomycin exposure of PAI-1-/- mice; assay type: in vivo, mouse; conditions: for IHC TRF1 or TRF2 antigen expression / telomerase enzyme activity (trapeze) / telomere length: PAI-1-/- mice; for IHC TRF1 or TRF2 antigen expression / telomerase enzyme activity (trapeze): TS; for telomere length: smoke or BLM; for p53, Acp53, S15p53, cleaved caspase-3, β-galactosidase, SIAH1/2, PNUTS, TRF1, TRF2, TERT (Western blot): 8X-BLM; for telomere length (qPCR): 20 weeks TS; for p53, Acp53, S15p53, cleaved caspase-3, β-galactosidase in AT2 cells (Western blot): CS 20 weeks
Experimental: To analyze the effect of cigarette smoke, mice were exposed to passive smoke from 40 research cigarettes over a 2-hour period once (2 h) or twice (4 h) daily for 5 days/week for 20 weeks (˜90 mg/m^3 total solid particulates) using a mechanical smoking chamber (Teague Enterprises, Davis, CA). Control mice were exposed to ambient air. At the 18th week, peptide treatment at a dosage of 30 μg/20 g body weight was initiated and continued on a daily basis for the next 14 days. At the end of the experiment, the mice were euthanized and used for the experiments.
as §1
(§3) To test the effect of chronic TS exposure induced lung injury, these mice were exposed to passive TS from 40 research cigarettes over a 4 h period 5 days/week for 20 weeks (˜90 mg/m3 total solid particulates) using a mechanical smoking chamber (Teague Enterprises, Davis, CA) as described earlier. (Bhandary et al, 2015). Control mice were kept in ambient air. After sixteen weeks of daily passive TS exposure, mice with TS exposure injury were treated with CSP7 at a dosage of 1.5 mg/kg body weight daily 5 days/week for the next four weeks. These mice were continued with daily exposure of 4 h of TS during CSP7 treatment. At the end of the experiment (after 20 weeks of TS exposure), the mice were euthanized, and lungs were utilized for further analyses. To expand the local delivery options of CSP7 to directly treat the damaged lung by air-jet milling for dry powder inhalation (DPI). Mice exposed to TSE were treated with CSP7 using a rotating brush generator for 15 min daily for 7 days. Fourteen days later, BLM mice were subjected to daily inhalation of micronized CSP7 (0.05 mg/kg/d) DP through air-jet-milling for seven consecutive days using a rotating brush exposure system. The rotating brush exposure system gave a consistent minimal chamber concentration of 0.1 mg/L. In order to match dosing of DP inhalation, animal exposure times were adjusted to approximately 15 minutes and an estimated dose of 0.05 mg/kg/d or 1.00 microgram/lung was administered.
as §2

A2Cs of IL-17A^−/− mice = experiment: Tobacco smoke exposure of IL-17A-/- mice; assay type: in vivo, mouse; conditions: 20 weeks TS; for IHC Trf1 or Trf2 antigen staining: IL-17A-deficient mice
Experimental: Mouse models and CSP7 treatment. All experiments involving mice were performed according to the approved protocols under the guidelines of Institutional Animal Care and Use Committee. Wild type (WT), and PAI-1^−/− and uPA^−/− mice of C57BL/6 background purchased from Jackson Laboratory (Bar Harbor, ME) were used for the experiments. IL-17A^−/− mice were obtained from University of Tokyo, Japan.
as §3

WT mice with CS-LI = experiment: Chronic CS/TSE lung injury in WT mice treated by nebulization or IP injection; assay type: in vivo, mouse

Substance	tolerability [1]	PP2A activity (PP2A; AECs from COPD lungs, 48 h)	TERT enzyme activity ([2]; 8X-BLM PF)	TRF1, TRF2, PNUTS and TERT expression in A2Cs ([2]; 8X-BLM PF)	IHC TRF1 or TRF2 antigen expression (A2Cs of PAI-1^−/− mice)	telomerase enzyme activity (trapeze) (A2Cs of PAI-1^−/− mice)	telomere length (A2Cs of PAI-1^−/− mice)	p53, Acp53, S15p53, cleaved caspase-3, β-galactosidase, SIAH1/2, PNUTS, TRF1, TRF2, TERT (Western blot) (A2Cs of PAI-1^−/− mice; PAI-1-deficient mice)	telomere length (qPCR) (A2Cs of PAI-1^−/− mice; PAI-1-deficient mice)	p53, Acp53, S15p53, cleaved caspase-3, β-galactosidase in AT2 cells (Western blot) (A2Cs of PAI-1^−/− mice; PAI-1-deficient mice)	telomere shortening in A2Cs (A2Cs of IL-17A^−/− mice; IL-17A-/- mice)	IHC Trf1 or Trf2 antigen staining (A2Cs of IL-17A^−/− mice)	H&E alveolar damage / mean linear intercept (MLI) (WT mice with CS-LI; Neb and IP)	IHC MUC5AC and HDAC6 staining in lung sections (WT mice with CS-LI; Neb or IP)	co-localization of MUC5AC and HDAC6 in lung sections (WT mice with CS-LI; Neb or IP)	also measured
DGIWKASFTTFTVTKYWFYR (listed as Homo sapiens) [CSP, 20 residue caveolin-1 scaffolding domain peptide]	well-tolerated															
FTTFTVT (listed as Homo sapiens) [CSP7, heptapeptide fragment of the caveolin-1 scaffolding domain peptide CSP]	well-tolerated	increased activity of PP2AC; also recorded: significantly improved	significantly reversed	reversed	minimal change in TRF1 or TRF2 antigen expression	no significant change activity	no significant change in telomere length	little or no difference	minimal effect on telomere length	little or no difference	minimal effect	little change in Trf1 or Trf2 antigen staining	reversed; also recorded: significantly (P<0.0001) reduced	reversed; also recorded: remarkably improved; also recorded: markedly reduced	reversed; also recorded: markedly reduced in those treated with CSP7	p53, PAI-1, SIAH1/2, caspase-3 activation, β-galactosidase in A2Cs ([2]; 8X-BLM PF): suppression; IHC of lung sections for TRF2, p53, PAI-1, TRF1 ([2]; 8X-BLM PF (FIG. 25E)): restoration of TRF2 expression with reduction in p53, PAI-1 and TRF1; telomere length of A2Cs (qPCR) ([2]; 8X-BLM PF, treated two weeks): improved; expression of p53 in A2Cs (A2Cs of PAI-1^−/− mice; PAI-1-deficient mice, TS or BLM): minimal effect; baseline telomerase activity (A2Cs of IL-17A^−/− mice; IL-17A-/- mice): limited effects on baseline telomerase activity; Ac-Tub staining in tracheal sections (WT mice with CS-LI; 20 weeks TSE/CS): reversed in CSP7 treated WT mice; also recorded: improved; PAI-1 expression in AT2 cells (WT mice with CS-LI; CS-LI WT mice): reduced; total, acetylated, serine phosphorylated p53, cleaved caspase-3, β-galactosidase in AT2 cells (WT mice with CS-LI; CS-LI WT mice, IP): markedly suppressed; MUC5AC and HDAC6 mRNA in TECs (WT mice with CS-LI; CS-LI mice): significantly reduced; MUC5AC, HDAC6, FOXA3, CAV1 and FOXA2 mRNA in lung (WT mice with CS-LI; CS-LI mice): significant reduction in MUC5AC, HDAC6, FOXA3, and CAV1 mRNA; PP2A and CIP2A mRNA in lung (WT mice with CS-LI; CS-LI mice): reversed; macrophages in bronchoalveolar lavage (WT mice with CS-LI; CS-LI mice): significantly reduced; number of ciliated (Ac-Tub positive) tracheal epithelial cells (WT mice with CS-LI; MTEC/TECs isolated from treated mice): reversal; also recorded: significantly reversed; also recorded: increased the number of ciliated TECs; IHC Ac-Tubulin, LC3 (and CAV1) in lung sections (WT mice with CS-LI; Neb and IP): reversed in CSP7 (Neb and IP) treated WT mice; IHC Cav1 expression in lung sections (WT mice with CS-LI; Neb and IP): overcome; MUC5AC, HDAC6, SPDEF, LC3, FOXA2, Ac-tubulin in lung homogenates (WT mice with CS-LI; Neb or IP): alleviated TSE MUC5AC and HDAC6 expression; also recorded: reversed; CAV1, p53 and PAI-1 in lung homogenates (WT mice with CS-LI; via airways or systemically): marked inhibition of CAV1, p53, and PAI-1
WGIDKAFFTTSTVTYKWFRY [CP, scrambled control peptide with the same amino acid composition as CSP, reference compound]		failed to increase the PP2A activity	still displayed shortened telomere	still harbor A2Cs with shortened telomere	minimal change in TRF1 or TRF2 antigen expression	no significant change activity	no significant change in telomere length	little or no difference	minimal effect on telomere length	little or no difference	minimal effect	little change in Trf1 or Trf2 antigen staining	continued to show 479 alveolar damage	not evident	Increased staining and co-localization	PP2A activity (PP2A; COPD lung tissues ex vivo, 10 μM, 72 h): minimal effect

Source: patent publication US20240082342A1, “PEPTIDE THERAPEUTICS FOR INCREASING LUNG CELL VIABILITY” (BOARD OF REGENTS, THE UNIVERSITY OF TEXAS SYSTEM, priority 2018, published 2024)
